Assay results published in patent US20060019907A1, “Guggulsterone: an inhibitor of nuclear factor - kappaB and IkappaBalpha kinase activation and uses thereof” (Research Development Foundation, priority 2004, published 2006).

How the values were obtained:
NF-κB [1] = test: TNF-induced NF-κB activation by EMSA in A549, Jurkat and KBM-5 cells; format: cell-based, human; conditions: 50 μM, 4 hours, then 0.1 nM TNF 30 min
Method: (§1) NF-κB Activation: To determine NF-κB activation, EMSA was carried out as previously described (Chaturvedi et al., 2000). Briefly, nuclear extracts prepared from cells (2×10^6/ml) treated with TNF were incubated with ^32P-end-labeled 45-mer double-stranded NF-κB oligonucleotide (8 μg of protein with […] of DNA) from the human immunodeficiency virus long terminal repeat, 5′-[…] GGCGTGG-3′ (SEQ ID NO:1) (boldface indicates NF-κB binding sites), for 15 min at 37° C. The DNA-protein complex formed was separated from free oligonucleotide on 6.6% native polyacrylamide gels. A double-stranded mutated oligonucleotide, 5′-[…]-3′ (SEQ ID NO:2), was used to examine the specificity of binding of NF-κB to the DNA. The specificity of binding was also examined by competition with the unlabeled oligonucleotide. For supershift assays, nuclear extracts prepared from TNF-treated cells were incubated with antibodies against either the p50 or the p65 subunit of NF-κB for 30 min at room temperature before the complex was analyzed by EMSA. The dried gels were visualized, and radioactive bands were quantitated using a PHOSPHORIMAGER™ (Molecular Dynamics, Sunnyvale, Calif.) using IMAGEQUANT™ software.

NF-κB [2] = test: Constitutively active NF-κB by EMSA in U266 and MDA 1986 tumor cells; format: cell-based, human; conditions: 50 μM, 4 hours
Method: as §1

NF-κB proteins = target: T1, NF-κB proteins (Homo sapiens, UniProt P19838+Q04206); test: DNA binding of NF-κB in nuclear extracts incubated with guggulsterone (EMSA); format: biochemical; conditions: nuclear extracts from TNF-activated H1299 cells treated with guggulsterone 4 hours at room temperature
T1 construct: endogenous in cells; nuclear extract
Method: as §1, with “software. […]” for “software.”

IKK = test: Direct inhibition of immunoprecipitated IKK, kinase assay; format: biochemical, human; conditions: 50 μM; immune complex treated 30 min at 30° C.
Method: IKK Assay: To determine the effect of guggulsterone on TNF-induced IKK activation, IKK was analyzed by a method essentially as described previously (Shishodia et al., 2003). Briefly, IKK complex was precipitated from whole-cell extracts with antibody to IKKα and IKKβ, assayed in kinase assay using GST-IκBα (1-54) as a substrate, and resolved on 10% polyacrylamide gel; the radioactive bands were visualized using a PHOSPHORIMAGER™. To determine the total amounts of IKKα and IKKβ in each sample, 30 μg of the whole-cell extract protein was resolved on a 7.5% polyacrylamide gel and analyzed by Western blot using antibody against IKKα and IKKβ.

KBM-5 cells [3] = test: Cytotoxicity (MTT) assay with TNF and chemotherapeutic drugs; format: cell-based, human; conditions: 50 μM guggulsterone, 72 hours
Method: Cytotoxicity Assay: Cytotoxicity was assayed by the modified tetrazolium salt 3-(4-5-dimethylthiozol-2-yl)2-5-diphenyl-tetrazolium bromide (MTT) assay (Bharti et al., 2003). Briefly, cells (5000 cells/well) were incubated in the presence or absence of the indicated test sample in a final volume of 0.1 ml for 72 hours at 37° C. Thereafter, 0.025 ml of MTT solution (5 mg/ml in PBS) was added to each well. After a 2 hour incubation at 37° C., 0.1 ml of the extraction buffer (20% SDS, 50% dimethylformamide) was added. After an overnight incubation at 37° C., the optical densities at 570 nm were measured using a 96-well multiscanner autoreader (Dynatech MR5000), with the extraction buffer as blank. The percent cytotoxicity was determined as follows: (1−(A570 of test sample)/(A570 of control sample)×100%.

KBM-5 cells [4] = test: Live and Dead (calcein AM) assay, TNF plus guggulsterone; format: cell-based, human; conditions: TNF in combination with guggulsterone, 24 hours
Source text: Live and Dead Assay: To measure apoptosis, the Live and Dead assay (Molecular Probes) was used, which determines intracellular esterase activity and plasma membrane integrity. This assay employs calcein, a polyanionic dye, which is retained within the live cells and provides green fluorescence. It also employs the ethidium […] dye (red fluorescence), which can enter the cells only through damaged membranes and bind to nucleic acids but is excluded by the intact plasma membrane of live cells. Briefly, 1×10^5 cells are incubated with 10 μM guggulsterone for 24 h and then treated with 1 nM TNF for 16 hours at 37° C. Cells are stained with the Live and Dead reagent (5 μM ethidium homodimer, 5 μM calcein-AM) and then incubated at 37° C. for 30 min. Cells were analyzed under a fluorescence microscope (Labophot-2).

NF-κB [5] = test: RANKL-induced NF-κB activation by EMSA in RAW 264.7 cells; format: cell-based, mouse
[6] = system: MKK4 mutants and wild type cells; test: Cytotoxicity (MTT uptake) in MKK4 mutants and wild type cells; format: cell-based; conditions: 72 h
Method: Cytotoxicity assay. The cytotoxic effects of guggulsterone was determined by the MTT uptake method. Briefly, 5000 cells were incubated with guggulsterone in triplicate in a 96-well plate at 37° C. MTT solution was then added to each well. After a 2-h incubation at 37° C., extraction buffer (20% SDS, 50% dimethylformamide) was added, the cells were incubated overnight at 37° C., and the OD was then measured at 570 nm using a 96-well multiscanner (Dynex Technologies, MRX Revelation, Chantilly, Va.).

bile salt export pump = conditions: Cui et al., 2003; cited from earlier work
[7] = humans; cited from earlier work

T1 sequence (Q04206 whole entry): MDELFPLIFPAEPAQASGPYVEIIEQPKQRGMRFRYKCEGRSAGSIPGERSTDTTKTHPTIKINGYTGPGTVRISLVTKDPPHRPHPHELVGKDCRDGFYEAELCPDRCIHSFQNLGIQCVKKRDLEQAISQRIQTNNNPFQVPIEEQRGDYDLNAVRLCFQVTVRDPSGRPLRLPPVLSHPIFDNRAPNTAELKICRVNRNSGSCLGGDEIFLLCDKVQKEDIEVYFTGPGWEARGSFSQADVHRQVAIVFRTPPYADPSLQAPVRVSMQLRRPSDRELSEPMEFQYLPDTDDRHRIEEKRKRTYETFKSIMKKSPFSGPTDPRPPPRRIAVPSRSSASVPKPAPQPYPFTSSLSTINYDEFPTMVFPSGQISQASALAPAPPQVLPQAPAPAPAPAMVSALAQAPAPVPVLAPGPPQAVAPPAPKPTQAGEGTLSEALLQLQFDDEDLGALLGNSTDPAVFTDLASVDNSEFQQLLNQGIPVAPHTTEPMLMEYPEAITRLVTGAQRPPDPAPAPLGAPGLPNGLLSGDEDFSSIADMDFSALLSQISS
T1 sequence (P19838 1-433 limits assumed): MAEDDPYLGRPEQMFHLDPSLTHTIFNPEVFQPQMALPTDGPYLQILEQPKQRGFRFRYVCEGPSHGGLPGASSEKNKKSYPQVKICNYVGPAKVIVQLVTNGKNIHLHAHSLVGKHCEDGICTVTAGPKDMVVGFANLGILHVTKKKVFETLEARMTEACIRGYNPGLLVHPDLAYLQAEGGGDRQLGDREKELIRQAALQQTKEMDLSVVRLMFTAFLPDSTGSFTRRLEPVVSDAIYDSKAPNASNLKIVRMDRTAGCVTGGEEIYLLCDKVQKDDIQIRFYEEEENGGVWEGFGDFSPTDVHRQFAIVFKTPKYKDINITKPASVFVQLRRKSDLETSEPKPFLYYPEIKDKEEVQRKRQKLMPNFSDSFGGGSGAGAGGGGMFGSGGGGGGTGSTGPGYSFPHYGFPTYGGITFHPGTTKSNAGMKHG

## CC=C1C(=O)C[C@H]2[C@@H]3CCC4=CC(=O)CC[C@]4(C)[C@H]3CC[C@]12C [guggulsterone, 4,17(20)-pregnadiene-3,16-dione]
NF-κB [1]
  TNF-induced NF-κB activation in A549, Jurkat and KBM-5 cells: completely inhibited this activation
NF-κB [2]
  constitutively active NF-κB in U266 and MDA 1986 cells: completely inhibited this constitutively active NF-κB
NF-κB proteins
  DNA-binding ability of NF-κB proteins: did not modify the DNA-binding ability of NF-κB proteins
IKK
  phosphorylation of GST IκBα by immunoprecipitated IKK (direct inhibition): inhibited the phosphorylation of GST IκBα
KBM-5 cells [3]
  cytotoxic effects of TNF, paclitaxel and doxorubicin in combination with guggulsterone: enhanced the cytotoxic effects of TNF, paclitaxel and doxorubicin
KBM-5 cells [4]
  TNF-induced apoptosis, calcein AM-based live/dead assay: TNF-induced apoptosis was significantly enhanced
NF-κB [5]; RAW 264.7, 10 nM RANKL
  concentration of complete inhibition of RANKL-induced NF-κB activation: 50 µM
  inhibition of RANKL-induced NF-κB, dose dependence: increased with dose
NF-κB [5]; RAW 264.7, 50 μM, 10 nM RANKL
  RANKL-induced NF-κB activation (EMSA): completely abrogated the RANKL-induced NF-κB activation
NF-κB [5]; osteoclast precursor cells
  RANKL-induced NF-κB activation (Example 1): inhibits RANKL-induced NF-κB activation
[6]
  guggulsterone induced cytotoxicity, dependence on MKK4: MKK4 is required for guggulsterone induced cytotoxicity
Bile salt export pump
  transcription of the bile salt export pump: enhances transcription of the bile salt export pump
[7]
  pharmacological safety: pharmacologically safe agent in humans
